US11286268B1, “EIF4E-inhibiting compounds and methods” (EFFECTOR THERAPEUTICS, INC., priority 2019, dated 2022)
pIC50: −log10 of the molar value. Where two headings read alike, the source gives them in different places.

Target: recombinant eIF4E (Homo sapiens (Human), UniProt P06730)
Experiment: Fluorescence polarization competition assay for eIF4E binding potency
Summary of the method: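 Protein and fluorescent cap-analog probe (EDA-m7GDP-ATTO-550) were mixed first for 5 min, after which serially diluted compound was added to final 75 nM eIF4E, 20 nM probe, 1% DMSO. Reactions equilibrated 30 min at room temperature before polarization was measured.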

[1] = fluorescence polarization competition, 75 nM recombinant eIF4E, 20 nM EDA-m7GDP-ATTO-550, IC50 class, read-out: elF4E FP
[2] = inhibition of eIF4E/EDA-m7GDP-ATTO-550 binding by 50%, Table 4B calculated values, read-out: IC50
[3] = inhibition of eIF4E/EDA-m7GDP-ATTO-550 binding, calculated IC50 values, Table 4B, read-out: IC50

Sequence of recombinant eIF4E (P06730 whole entry): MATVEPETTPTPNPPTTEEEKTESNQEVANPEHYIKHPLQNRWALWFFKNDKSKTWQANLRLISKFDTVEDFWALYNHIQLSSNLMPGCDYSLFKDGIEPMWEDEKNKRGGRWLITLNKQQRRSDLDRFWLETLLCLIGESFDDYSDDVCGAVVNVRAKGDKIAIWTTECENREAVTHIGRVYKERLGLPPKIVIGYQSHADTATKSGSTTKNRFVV

## Cc1cc(-c2cc(Cl)ccc2OCCn2c(C)nc3cc(Cl)c(N4CC(S(C)(=O)=O)C4)c(C#N)c3c2=O)c2scc(C(=O)O)c2n1 [compound 702]
[1]
  pIC50: > 7.30
[2]
  pIC50: 7.90

## Cc1nc2cnc(N3CCN(C)C4(CC4)C3)c(C#N)c2c(=O)n1CCOc1ccc(Cl)cc1-c1ccnc2c(C(=O)O)csc12 [compound 1337]
[3]
  pIC50: 7.28

## Cc1cc(-c2cc(Cl)ccc2OCCn2c(C)nc3cc(Cl)c(-c4cccnc4)c(C#N)c3c2=O)c2scc(C(=O)O)c2n1 [compound 653]
[1]
  pIC50: > 7.30
[2]
  pIC50: 7.64

## Cc1nc2cc3c(c(C#N)c2c(=O)n1CCOc1ccc(Cl)cc1-c1ccnc2c(C(=O)O)csc12)S(=O)(=O)N(C)C3 [compound 1953]
[3]
  pIC50: 7.05

## Cc1nc2ccc(OC(F)F)c(C#N)c2c(=O)n1CCOc1ccc(Cl)cc1-c1ccnc2c(C(=O)O)csc12 [compound 236]
[1]
  pIC50: > 7.30
[2]
  pIC50: 7.69

## Cc1nc2cnc(C3CC3)c(C#N)c2c(=O)n1CCOc1ccc(Cl)cc1Sc1nc(C(=O)O)cs1 [compound 922]
[1]
  pIC50: 6.00 to 7.30
[2]
  pIC50: 7.05

## Cc1cc(-c2cc(Cl)ccc2OCCn2c(C)nc3c(-c4ccccc4)nc(N(C)C)c(C#N)c3c2=O)c2scc(C(=O)O)c2n1 [compound 987]
[1]
  pIC50: > 7.30
[2]
  pIC50: 7.87

## Cc1nc2cnc(N3CC(N4CC(F)(F)C4)C3)c(C#N)c2c(=O)n1CCOc1ccc(Cl)cc1-c1ccnc2c(C(=O)O)csc12 [compound 1341]
[3]
  pIC50: 7.67

## Cc1cc(-c2cc(Cl)ccc2OCCn2c(C)nc3cc(CF)c(C)c(C#N)c3c2=O)c2scc(C(=O)O)c2n1 [compound 724]
[1]
  pIC50: > 7.30
[2]
  pIC50: 7.42

## Cc1cc(-c2cc(Cl)ccc2OCCn2c(C)nc3cc(C(F)(F)F)c(CC4CCNCC4)c(C#N)c3c2=O)c2scc(C(=O)O)c2n1 [compound 714]
[1]
  pIC50: > 7.30
[2]
  pIC50: 7.33

## Cc1cc(-c2cc(Cl)ccc2OCCn2c(C)nc3cc(C(F)(F)F)c[n+]([O-])c3c2=O)c2scc(C(=O)O)c2n1 [compound 1007]
[1]
  pIC50: > 7.30
[2]
  pIC50: 7.32

## CS(=O)(=O)c1cc(C#N)c2c(=O)n(CCOc3ccc(Cl)cc3-c3cccc(C(=O)O)c3)c(CF)nc2c1 [compound 233]
[1]
  pIC50: > 7.30
[2]
  pIC50: 7.54

## N#Cc1cc(Br)cc2ncn(CCOc3ccc(Cl)cc3-c3cccc(C(=O)O)c3)c(=O)c12 [compound 1988]
[3]
  pIC50: 7.31

## Cc1cc(-c2cc(Cl)ccc2OCCn2c(C)nc3cc(OC(F)F)cc(C#N)c3c2=O)c2scc(C(=O)NS(C)(=O)=O)c2n1 [compound 580]
[1]
  pIC50: > 7.30
[2]
  pIC50: 7.62

## Cc1nc2cnc(N3CCC(C)(N(C)CC(F)F)CC3)c(C#N)c2c(=O)n1CC#Cc1ccc(Cl)cc1-c1ccnc2c(C(=O)O)csc12 [compound 1414]
[3]
  pIC50: 7.82

## Cc1cc(-c2cc(Cl)ccc2OCCn2c(C)nc3c(C)ncc(C#N)c3c2=O)c2scc(C(=O)NS(C)(=O)=O)c2n1 [compound 731]
[1]
  pIC50: > 7.30
[2]
  pIC50: 8.22

## Cc1ncc(C#N)c2c(=O)n(CCOc3ccc(Cl)cc3-c3ccc(C)c4c(C(=O)O)csc34)c(C)nc12 [compound 722]
[1]
  pIC50: > 7.30
[2]
  pIC50: 7.42

## Cc1nc2cc(C(F)(F)F)cc(C#N)c2c(=O)n1CCOc1ccc(Cl)cc1-c1cc(Cl)nc2c(C(=O)O)csc12 [compound 444]
[1]
  pIC50: > 7.30
[2]
  pIC50: 7.51

## Cc1cc(-c2cc(Cl)ccc2OCCn2c(C)nc3cc(C(F)(F)F)c(-c4ccns4)c(C#N)c3c2=O)c2scc(C(=O)O)c2n1 [compound 348]
[1]
  pIC50: > 7.30
[2]
  pIC50: 7.81

## Cc1nc2cnc(N3CCN(C)C(C(F)F)C3)c(C#N)c2c(=O)n1CCOc1ccc(Cl)cc1-c1ccnc2c(C(=O)O)csc12 (stereo not drawn) [compound 1305]
[3]
  pIC50: 7.58

## Cc1nc2cc(C(F)(F)F)cc(C#N)c2c(=O)n1CCOc1ccc(Cl)cc1-c1coc2c(C(=O)O)ccnc12 [compound 324]
[1]
  pIC50: 6.00 to 7.30
[2]
  pIC50: 7.03

## Cn1ccc2ncn(CCOc3ccc(Cl)cc3-c3cccc(C(=O)O)c3)c(=O)c21 [compound 69]
[1]
  pIC50: < 6.00
[2]
  pIC50: 4.57

## Cc1cc(-c2cc(Cl)ccc2OCCn2c(C)nc3cc(C(F)(F)F)c(-n4ccnc4)c(C#N)c3c2=O)c2scc(C(=O)O)c2n1 [compound 632]
[1]
  pIC50: > 7.30
[2]
  pIC50: 7.92

## CON(C)c1ncc2nc(C)n(CCOc3ccc(Cl)cc3-c3cc(C)nc4c(C(=O)O)csc34)c(=O)c2c1C#N [compound 976]
[1]
  pIC50: > 7.30
[2]
  pIC50: 7.72

## O=C(O)c1cccc(-c2cc(Cl)ccc2OCCn2cnc3ccncc3c2=O)c1 [compound 12]
[1]
  pIC50: < 6.00
[2]
  pIC50: 5.62

## O=C(O)c1cccc(-c2cc(Cl)ccc2OCCn2cnc3c(F)cccc3c2=O)c1 [compound 76]
[1]
  pIC50: < 6.00
[2]
  pIC50: 5.64

## CCN(c1ncc2nc(C)n(CC#Cc3ccc(Cl)cc3-c3ccnc4c(C(=O)O)csc34)c(=O)c2c1C#N)C1CCN(CC(F)(F)C(F)F)CC1 [compound 1191]
[1]
  pIC50: > 7.30
[3]
  pIC50: 7.89

## COc1cc(C#N)c2c(=O)n(CCOc3ccc(Cl)cc3-c3ccnc4c(C(=O)O)csc34)c(C)nc2c1 [compound 405]
[1]
  pIC50: > 7.30
[2]
  pIC50: 7.71

## C#Cc1c(C(=O)O)cccc1-c1cc(Cl)ccc1OCCn1cnc2cc(C(F)(F)F)cc(C#N)c2c1=O [compound 159]
[1]
  pIC50: > 7.30
[2]
  pIC50: 7.51

## Cc1cc(-c2cc(Cl)ccc2OCCn2c(C)nc3cnc(C#N)cc3c2=O)c2scc(C(=O)O)c2n1 [compound 596]
[1]
  pIC50: > 7.30
[2]
  pIC50: 7.42

## Cc1cc(-c2cc(Cl)ccc2OCCc2c(C)n(C)c3cc(C(F)(F)F)cc(C#N)c3c2=O)c2scc(C(=O)O)c2n1 [compound 409]
[1]
  pIC50: > 7.30
[2]
  pIC50: 7.88

## Cc1nc2cc(C(F)(F)F)c(N3CCN(C)CC3)c(C#N)c2c(=O)n1CCOc1ccc(Cl)cc1-c1ccnc2ccsc12 [compound 705]
[1]
  pIC50: > 7.30
[2]
  pIC50: 7.72

## COC(=O)c1csc2c(-c3cc(Cl)ccc3C#CCn3c(C)nc4cnc(N(C)C5CCN(CC(C)(F)F)CC5)c(C#N)c4c3=O)ccnc12 [compound 980]
[1]
  pIC50: > 7.30
[2]
  pIC50: 7.81

## Cc1nc2cc(C(F)(F)F)c(N3CCN(c4ccncc4)CC3)c(C#N)c2c(=O)n1CCOc1ccc(Cl)cc1-c1cccc(C(=O)O)c1 [compound 387]
[1]
  pIC50: 6.00 to 7.30
[2]
  pIC50: 6.21

## Cc1nc2cnc(N(C)C3CCN(C4CCC4(F)F)CC3)c(C#N)c2c(=O)n1CC#Cc1ccc(Cl)cc1-c1ccnc2c(C(=O)O)csc12 (stereo not drawn) [compound 1166]
[1]
  pIC50: > 7.30
[2]
  pIC50: 7.54

## Cc1cc(-c2cc(Cl)ccc2OCCn2c(C)nc3cc(C(F)(F)F)c(N4CCN(C)CC4)c(C#N)c3c2=O)c2scc(C(O)C(F)(F)F)c2n1 (stereo not drawn) [compound 1080]
[1]
  pIC50: 6.00 to 7.30
[2]
  pIC50: 6.98

## Cc1cc(-c2cc(Cl)ccc2OCCn2c(C)nc3cc(Cl)c(-c4cccnc4C)c(C#N)c3c2=O)c2scc(C(=O)O)c2n1 [compound 395]
[1]
  pIC50: > 7.30
[2]
  pIC50: 8.01

## Cc1cc(-c2cc(Cl)ccc2OCCn2c(C)nc3cc(-c4cccnc4)c(C)c(C#N)c3c2=O)c2scc(C(=O)O)c2n1 [compound 759]
[1]
  pIC50: 6.00 to 7.30
[2]
  pIC50: 7.28

## Cc1cc(-c2cc(Cl)ccc2OCCn2c(C)nc3cnc(-c4ccc5ncsc5c4)c(C#N)c3c2=O)c2scc(C(=O)O)c2n1 [compound 993]
[1]
  pIC50: > 7.30
[2]
  pIC50: 7.81

## Cc1nc2cnc(N(C)[C@H]3CC[C@H](N4CC(F)(F)C4)CC3)c(C#N)c2c(=O)n1CC#Cc1ccc(Cl)cc1-c1ccnc2c(C(=O)O)csc12 [compound 1099]
[1]
  pIC50: > 7.30

## Cc1nc2ccc(S(=O)(=O)N(C)C)c(C#N)c2c(=O)n1CCOc1ccc(Cl)cc1-c1ccnc2c(C(=O)O)csc12 [compound 196]
[1]
  pIC50: > 7.30
[2]
  pIC50: 7.59

## Cc1nc2cc(C(F)(F)F)cc(C#N)c2c(=O)n1CCOc1ccc(Cl)cc1-c1ccnc2c(C(=O)O)c(Cl)sc12 [compound 266]
[1]
  pIC50: > 7.30
[2]
  pIC50: 7.58

## CCN(c1ncc2nc(C)n(CC#Cc3ccc(Cl)cc3-c3ccnc4c(C(=O)NS(=O)(=O)CC#N)csc34)c(=O)c2c1C#N)C1CCN(C2COC2)CC1 [compound 1735]
[3]
  pIC50: 7.47

## Cc1nc2cnc(C3CC3)c(C#N)c2c(=O)n1CCOc1ccc(Cl)cc1Sc1cccc(C(=O)O)n1 [compound 940]
[1]
  pIC50: 6.00 to 7.30
[2]
  pIC50: 6.33

## Cc1nc2cc(C(F)(F)F)c(N3CCNCC3)c(C#N)c2c(=O)n1CCOc1ccc(Cl)cc1-c1ccnc2ccsc12 [compound 855]
[1]
  pIC50: > 7.30
[2]
  pIC50: 8.32

## CCCc1ncc2nc(C)n(CCOc3ccc(Cl)cc3-c3cc(C)nc4c(C(=O)O)csc34)c(=O)c2c1C#N [compound 1063]
[1]
  pIC50: > 7.30

## CCCCc1nc2c(=O)n(CCOc3ccc(Cl)cc3-c3cc(C)nc4c(C(=O)O)csc34)c(C)nc2cc1C(F)(F)F [compound 391]
[1]
  pIC50: > 7.30
[2]
  pIC50: 8.45

## Cc1nc2cc(OC(F)F)c(C(F)F)c(C#N)c2c(=O)n1CCOc1ccc(Cl)cc1-c1ccnc2c(C(=O)O)csc12 [compound 539]
[1]
  pIC50: > 7.30
[2]
  pIC50: 7.33

## CCc1cc(-c2cc(Cl)ccc2OCCn2c(C)nc3cc(C(F)(F)F)c(N4CCN(C)CC4)c(C#N)c3c2=O)c2scc(C(=O)O)c2n1 [compound 1085]
[1]
  pIC50: 6.00 to 7.30
[2]
  pIC50: 7.27

## Cc1cc(-c2cc(Cl)ccc2OCCn2c(C)nc3cc(C(F)(F)F)c(N4CCC(Cl)CC4)c(C#N)c3c2=O)c2scc(C(=O)O)c2n1 [compound 991]
[1]
  pIC50: > 7.30
[2]
  pIC50: 7.92

## Cc1nc2cnc(S(=O)(=O)N3CCN(C)CC3)c(C#N)c2c(=O)n1CCOc1ccc(Cl)cc1-c1ccnc2c(C(=O)O)csc12 [compound 821]
[1]
  pIC50: > 7.30
[2]
  pIC50: 7.85

## Cc1sc2c(-c3cc(Cl)ccc3C#CCn3c(C)nc4cc(C(F)(F)F)c(N5CCN(C)CC5)c(C#N)c4c3=O)ccnc2c1C(=O)O [compound 1271]
[3]
  pIC50: 7.88

## Cc1nc2c(OC(F)F)ccc(C#N)c2c(=O)n1CCOc1ccc(Cl)cc1-c1ccnc2c(C(=O)O)csc12 [compound 359]
[1]
  pIC50: > 7.30
[2]
  pIC50: 7.31
